What all share (type): cell-based
For assay [1], the target named is T1, hM3 (human Muscarinic receptor subtype 3) (Homo sapiens, UniProt P20309).
T1 construct: expressed in transfected cells; host or cells: CHO cells (Chinese hamster ovary cells, ATCC)
The assay can be described thus: Human M3 calcium mobilization FLIPR assay. To be noted: hM3 expressed in CHO cells, intracellular Ca2+ release, read-out: hM3 EC50. Here is the method:
(§1) Human M1, rat M1, human M3 and human M5 Calcium Mobilization FLIPR™ Assay
(§2) The compound activity in the present invention (EC50 or IC50) is measured using a 384 plate-based imaging assay that monitors drug induced intracellular Ca^2+ release in whole cells. Activation of hM1 (human Muscarinic receptor subtype 1, gene bank access NM_000738), rM1 (rat Muscarinic receptor subtype 1, gene bank access NM_080773), hM3 (human Muscarinic receptor subtype 3, gene bank access NM_000740NM_000740) and hM5 (human Muscarinic receptor subtype 5, gene bank access NM_0121258), receptors expressed in CHO cells (Chinese hamster ovary cells, ATCC) is quantified in a Molecular Devices FLIPR II™ instrument as an increase in fluorescent signal. Inhibition of hM3 and hM5 by compounds is determined by the decrease in fluorescent signal in response to 2 nM acetylcholine activation.
(§3) Prior to experiment, the cell culture medium is removed from the plates by inversion. […] Plates are incubated at 37° C. for 60 minutes prior to start the experiment. The incubation is terminated by washing the cells four times in assay buffer, leaving a residual 25 μl buffer per well. Cell plates are then transferred to the FLIPR, ready for compound additions.
(§4) The day of experiment, acetylcholine and compounds are diluted in assay buffer in three-fold concentration range (10 points serial dilution) for addition by FLIPR instrument. For all calcium assays, a baseline reading is taken for 10 seconds followed by the addition of 12.5 μl of compounds, resulting in a total well volume of 37.5 μl. Data is collected every second for 60 pictures and then every 6 seconds for 20 pictures prior to the addition of agonist. For hM3 and hM5, before agonist addition, a second baseline reading is taken for 10 seconds followed by the addition of 12.5 μl of agonist or buffer, producing a final volume of 50 μl. After agonist stimulation, the FLIPR continues to collect data every second for 60 pictures and then every 6 seconds for 20 pictures. The fluorescence emission is read using filter 1 (emission 510-570 nm) by the FLIPR on board CCD camera.
(§5) Calcium mobilization output data are calculated as the maximal relative fluorescence unit (RFU) minus the minimal value for both compound and agonist reading frame (except for hM1 and rM1 using only the maximal RFU). Data are analyzed using sigmoidal fits of a non-linear curve-fitting program (XLfit version 4.2.2 Excel add-in version 4.2.2 build 18 math 1Q version 2.1.2 build 18). All pEC50 and plC50 values are reported as arithmetic means ±standard error of mean of ‘n’ independent experiments.
On the technique in general: A change in cytosolic calcium serves as a functional read-out for many receptors and channels.

Assay [2] deals with T2, hM1 (human Muscarinic receptor subtype 1) (Homo sapiens, UniProt P11229).
T2 construct: expressed in transfected cells; host or cells: CHO cells (Chinese hamster ovary cells, ATCC)
T2 sequence (P11229 1-460): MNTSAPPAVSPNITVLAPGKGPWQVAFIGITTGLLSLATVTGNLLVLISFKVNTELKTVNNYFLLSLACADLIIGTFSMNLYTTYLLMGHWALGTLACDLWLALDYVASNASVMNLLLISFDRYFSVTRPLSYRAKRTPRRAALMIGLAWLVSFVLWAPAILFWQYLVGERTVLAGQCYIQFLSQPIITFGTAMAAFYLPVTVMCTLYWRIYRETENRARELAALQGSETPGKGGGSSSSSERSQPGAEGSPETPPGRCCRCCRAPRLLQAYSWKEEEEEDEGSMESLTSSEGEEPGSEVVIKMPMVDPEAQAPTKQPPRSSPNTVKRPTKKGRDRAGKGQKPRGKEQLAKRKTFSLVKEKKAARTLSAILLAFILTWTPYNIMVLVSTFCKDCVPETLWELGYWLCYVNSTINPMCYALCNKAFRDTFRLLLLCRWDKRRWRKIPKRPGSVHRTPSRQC
The experiment in a line: Human M1 calcium mobilization FLIPR assay. To be noted: hM1 expressed in CHO cells, intracellular Ca2+ release, read-out: hM1 EC50. In outline: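 CHO cells expressing the receptor, dye-loaded at 37°C for 60 min, read on FLIPR at 510-570 nm. Agonism taken from compound-induced Ca2+ rise (max RFU for M1); M3/M5 inhibition measured against 2 nM acetylcholine using max minus min RFU. 10-point threefold dilutions, sigmoidal fits.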

Assay [3] deals with T3, hM5 (human Muscarinic receptor subtype 5) (Homo sapiens, UniProt P08912).
T3 construct: expressed in transfected cells; host or cells: CHO cells (Chinese hamster ovary cells, ATCC)
T3 sequence (P08912 1-532): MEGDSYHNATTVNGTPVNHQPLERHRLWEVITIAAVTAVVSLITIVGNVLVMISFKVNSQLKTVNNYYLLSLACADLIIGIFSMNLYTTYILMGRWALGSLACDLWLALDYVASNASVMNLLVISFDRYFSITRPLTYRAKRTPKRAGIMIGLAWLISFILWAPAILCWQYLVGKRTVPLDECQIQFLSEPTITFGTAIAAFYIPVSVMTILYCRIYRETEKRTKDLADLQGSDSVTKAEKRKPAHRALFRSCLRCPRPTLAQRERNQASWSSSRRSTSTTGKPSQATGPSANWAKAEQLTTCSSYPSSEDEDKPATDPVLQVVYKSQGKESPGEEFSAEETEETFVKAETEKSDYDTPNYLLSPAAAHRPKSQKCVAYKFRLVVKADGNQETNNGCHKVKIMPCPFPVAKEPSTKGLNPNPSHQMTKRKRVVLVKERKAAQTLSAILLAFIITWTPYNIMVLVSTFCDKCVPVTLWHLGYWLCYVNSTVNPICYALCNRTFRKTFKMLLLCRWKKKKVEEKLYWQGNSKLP
The assay can be described thus: Human M5 calcium mobilization FLIPR assay. The settings on record: hM5 expressed in CHO cells, intracellular Ca2+ release, read-out: hM5 EC50. As to the method: as §1, §2, §3, §4, §5

This passage reports EC50 results from US20090221642A1, “MUSCARINIC RECEPTOR AGONISTS, COMPOSITIONS, METHODS OF TREATMENT THEREOF, AND PROCESSES FOR PREPARATION THEREOF-176” (AstraZeneca AB, priority 2008, published 2009).

Bounds are passed on as bounds.

T1 sequence (P20309 whole entry): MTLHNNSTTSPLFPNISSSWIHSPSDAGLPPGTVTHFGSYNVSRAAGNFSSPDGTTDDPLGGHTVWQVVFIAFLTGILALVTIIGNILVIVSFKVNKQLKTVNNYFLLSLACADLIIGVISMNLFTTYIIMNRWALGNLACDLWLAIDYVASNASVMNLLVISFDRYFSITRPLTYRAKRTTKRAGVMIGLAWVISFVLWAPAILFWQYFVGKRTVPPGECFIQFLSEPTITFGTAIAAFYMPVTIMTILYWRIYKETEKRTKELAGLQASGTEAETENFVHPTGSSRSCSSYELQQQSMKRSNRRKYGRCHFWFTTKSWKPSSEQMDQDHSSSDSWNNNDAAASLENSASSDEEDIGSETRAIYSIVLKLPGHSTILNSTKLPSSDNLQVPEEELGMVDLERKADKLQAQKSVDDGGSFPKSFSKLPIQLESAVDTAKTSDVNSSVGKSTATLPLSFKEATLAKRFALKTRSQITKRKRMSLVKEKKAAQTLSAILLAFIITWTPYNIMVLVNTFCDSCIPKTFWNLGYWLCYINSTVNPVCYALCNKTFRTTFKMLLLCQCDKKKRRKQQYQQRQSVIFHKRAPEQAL

In general, EC50 refers to the concentration needed to bring the measured effect to its halfway point. Turning to `CCOC(=O)N1CCC(C)(N2CCC(n3c(=O)[nH]c4ccc(F)cc43)CC2)C1` (single isomer, unassigned) [Example 49, ethyl 3-(4-(6-fluoro-2-oxo-2,3-dihydro-1H-benzo[d]imidazol-1-yl)piperidin-1-yl)-3-methylpyrrolidine-1-carboxylate], the figures for the EC50 in assay [1], in assay [2] and in assay [3] were greater than 40 µM, 0.0151 µM and greater than 6.21 µM, respectively.

With `CCOC(=O)N1CCC(C)(N2CCC(n3c(=O)[nH]c4ccc(F)cc43)CC2)C1` (single isomer, unassigned) [Example 50, ethyl 3-(4-(6-fluoro-2-oxo-2,3-dihydro-1H-benzo[d]imidazol-1-yl)piperidin-1-yl)-3-methylpyrrolidine-1-carboxylate], the EC50 is greater than 40 µM in assay [1], 0.0022 µM in assay [2] and 3.56 µM in assay [3].

On to `COC(=O)N1CCC(C)(N2CCC(n3c(=O)[nH]c4ccc(F)cc43)CC2)C1` (single isomer, unassigned) [Example 52, methyl 3-(4-(6-fluoro-2-oxo-2,3-dihydro-1H-benzo[d]imidazol-1-yl)piperidin-1-yl)-3-methylpyrrolidine-1-carboxylate], for which the results for the EC50 in assay [1], in assay [2] and in assay [3] were greater than 40 µM, 0.0147 µM and greater than 9.63 µM, respectively.

With `CC1(N2CCC(n3c(=O)[nH]c4ccc(F)cc43)CC2)CCN(C(=O)OCCF)C1` (single isomer, unassigned) [Example 53, 2-fluoroethyl 3-(4-(6-fluoro-2-oxo-2,3-dihydro-1H-benzo[d]imidazol-1-yl)piperidin-1-yl)-3-methylpyrrolidine-1-carboxylate], the results for the EC50 in assay [1], in assay [2] and in assay [3] were greater than 40 µM, 0.0115 µM and greater than 6.16 µM, respectively.

With `CCOC(=O)N1CCC(C)(N2CCC(n3c(=O)[nH]c4cc(F)c(C)cc43)CC2)C1` (single isomer, unassigned) [Example 55, ethyl 3-(4-(5-fluoro-6-methyl-2-oxo-2,3-dihydro-1H-benzo[d]imidazol-1-yl)piperidin-1-yl)-3-methylpyrrolidine-1-carboxylate], the EC50 was greater than 40 µM in assay [1], 0.0049 µM in assay [2] and 1.82 µM in assay [3].

As to `CCOC(=O)N1CCC(C)(N2CCC(n3c(=O)[nH]c4cc(F)c(C)cc43)CC2)C1` (single isomer, unassigned) [Example 56, ethyl 3-(4-(5-fluoro-6-methyl-2-oxo-2,3-dihydro-1H-benzo[d]imidazol-1-yl)piperidin-1-yl)-3-methylpyrrolidine-1-carboxylate], the EC50 in assay [1] is greater than 3.54 µM; in assay [2], 0.0035 µM; in assay [3], 1.28 µM.

With `CCOC(=O)N1CCC(C)(N2CCC(n3c(=O)[nH]c4cc(F)c(F)cc43)CC2)C1` (single isomer, unassigned) [Example 57, ethyl 3-(4-(5,6-difluoro-2-oxo-2,3-dihydro-1H-benzo[d]imidazol-1-yl)piperidin-1-yl)-3-methylpyrrolidine-1-carboxylate], the values for the EC50 in assay [1], in assay [2] and in assay [3] were 3.55 µM, 0.0026 µM and 0.356 µM, respectively.

Consider `CCOC(=O)N1CCC(C)(N2CCC(n3c(=O)[nH]c4cc(F)c(F)cc43)CC2)C1` (single isomer, unassigned) [Example 58, ethyl 3-(4-(5,6-difluoro-2-oxo-2,3-dihydro-1H-benzo[d]imidazol-1-yl)piperidin-1-yl)-3-methylpyrrolidine-1-carboxylate], for which the EC50 in assay [1] was greater than 40 µM; in assay [2], 0.0177 µM; in assay [3], 2.21 µM.

On to `COC(=O)N1CCC(C)(N2CCC(n3c(=O)[nH]c4cc(F)c(F)cc43)CC2)C1` (single isomer, unassigned) [Example 60, methyl 3-(4-(5,6-difluoro-2-oxo-2,3-dihydro-1H-benzo[d]imidazol-1-yl)piperidin-1-yl)-3-methylpyrrolidine-1-carboxylate], for which the EC50 was greater than 40 µM in assay [1], 0.0135 µM in assay [2] and greater than 7.27 µM in assay [3].

With `CC1(N2CCC(n3c(=O)[nH]c4cc(F)c(F)cc43)CC2)CCN(C(=O)OCCF)C1` (single isomer, unassigned) [Example 61, 2-fluoroethyl 3-(4-(5,6-difluoro-2-oxo-2,3-dihydro-1H-benzo[d]imidazol-1-yl)piperidin-1-yl)-3-methylpyrrolidine-1-carboxylate], the values for the EC50 in assay [1], in assay [2] and in assay [3] were greater than 40 µM, 0.0141 µM and greater than 2.71 µM, respectively.

With `COC(=O)N1CCC(C)(N2CCC(N3C(=O)Cc4ccc(C)cc43)CC2)C1` (single isomer, unassigned) [Example 67, methyl 3-methyl-3-(4-(6-methyl-2-oxoindolin-1-yl)piperidin-1-yl)pyrrolidine-1-carboxylate], the results for the EC50 in assay [1], in assay [2] and in assay [3] were greater than 33.5 µM, 0.0209 µM and greater than 6.71 µM, respectively.

Take `COC(=O)N1CCC(C)(N2CCC(N3C(=O)Cc4ccc(C)cc43)CC2)C1` (single isomer, unassigned) [Example 68, methyl 3-methyl-3-(4-(6-methyl-2-oxoindolin-1-yl)piperidin-1-yl)pyrrolidine-1-carboxylate]: the EC50 in assay [1] is 2.33 µM; in assay [2], 0.0133 µM; in assay [3], greater than 4.08 µM.

With `CCOC(=O)N1CCC(C)(N2CCC(N3C(=O)Cc4ccc(C)cc43)CC2)C1` (single isomer, unassigned) [Example 69, ethyl 3-methyl-3-(4-(6-methyl-2-oxoindolin-1-yl)piperidin-1-yl)pyrrolidine-1-carboxylate], the values for the EC50 in assay [1], in assay [2] and in assay [3] were greater than 40 µM, 0.011 µM and 1.37 µM, respectively.

On to `CCOC(=O)N1CCC(C)(N2CCC(N3C(=O)Cc4ccccc43)CC2)C1` (single isomer, unassigned) [Example 72, ethyl 3-methyl-3-(4-(2-oxoindolin-1-yl)piperidin-1-yl)pyrrolidine-1-carboxylate], for which the EC50 in assay [1] is greater than 40 µM; in assay [2] it was 0.0095 µM; in assay [3], greater than 40 µM.

On to `CCOC(=O)N1CCC(C)(N2CCC(N3C(=O)Cc4ccccc43)CC2)C1` (single isomer, unassigned) [Example 73, ethyl 3-methyl-3-(4-(2-oxoindolin-1-yl)piperidin-1-yl)pyrrolidine-1-carboxylate], for which the results for the concentration for a half-maximal effect (EC50) in assay [1], in assay [2] and in assay [3] were greater than 40 µM, 0.031 µM and greater than 40 µM, respectively.
